The values that follow come from ChEMBL document CHEMBL1137531, “Structure-based design and synthesis of (5-arylamino-2H-pyrazol-3-yl)-biphenyl-2',4'-diols as novel and potent human CHK1 inhibitors” (J Med Chem, 2007).

In general, EC50 refers to the concentration at which the effect is half-maximal. A high value points to a need for much substance. In general, Ki refers to a dissociation constant, usually derived from enzyme kinetics or from competition with a known ligand. One may read the IC50 as the midpoint of a concentration-inhibition curve. The inhibition is the change of the read-out against control, counted positive when it falls.

Each structure is given as a SMILES string. The source made the active and inactive calls. The calls are words filed in the database; no cut-off is given here.

Assay [1] has as its target T1, Serine/threonine-protein kinase Chk1 (Homo sapiens, UniProt O14757).
T1 sequence (O14757 whole entry): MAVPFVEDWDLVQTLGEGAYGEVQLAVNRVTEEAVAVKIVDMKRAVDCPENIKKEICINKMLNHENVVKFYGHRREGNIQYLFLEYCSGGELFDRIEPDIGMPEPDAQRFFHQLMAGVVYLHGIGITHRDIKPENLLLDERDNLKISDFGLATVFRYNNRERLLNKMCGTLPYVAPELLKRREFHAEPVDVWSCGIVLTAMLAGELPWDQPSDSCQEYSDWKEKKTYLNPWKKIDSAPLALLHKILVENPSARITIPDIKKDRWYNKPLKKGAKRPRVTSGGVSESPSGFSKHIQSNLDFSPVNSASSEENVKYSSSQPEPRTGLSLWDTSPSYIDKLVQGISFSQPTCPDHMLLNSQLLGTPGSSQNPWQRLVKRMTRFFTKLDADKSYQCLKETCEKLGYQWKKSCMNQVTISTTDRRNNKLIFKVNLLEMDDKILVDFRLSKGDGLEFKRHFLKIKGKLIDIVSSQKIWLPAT
In words: Activity at human CHK1 in CA46 cells by histone H3 ELISA assay. The class given is cell-based. (In general: An ELISA detects its analyte on a solid surface through an enzyme-linked reagent.)

Assay [2] concerns the target T1, Serine/threonine-protein kinase Chk1. Briefly: Inhibition of human CHK1 expressed in baculovirus/insect cell system.
Assay [3] has as its target Serine/threonine-protein kinase Chk1 (Homo sapiens) (UniProt O14757). In words: Activity at human CHK1 in CA46 cells by histone H3 ELISA assay at 1.0 uM. The class given is cell-based.
Assay [4] has the same target. In words: Activity at human CHK1 in CA46 cells by histone H3 ELISA assay at 10 uM. Type of assay: cell-based.
Assay [5] addresses T2, RAC-alpha serine/threonine-protein kinase (Homo sapiens, UniProt P31749). In words: Inhibition of AKT1.
Assay [6] concerns the target Casein kinase II (Homo sapiens) (UniProt P67870+P68400+P19784). Briefly: Inhibition of CK2 at 1 uM. The class given is protein-complex assay.
The target in assay [7] is MAP kinase-activated protein kinase 2 (Mus musculus) (UniProt P49138). Briefly: Inhibition of mouse MAPKAP2 at 1 uM.
In assay [8] the target is Aurora kinase A (Homo sapiens, UniProt O14965). In words: Inhibition of Aurora A.
Assay [9] concerns the target Serine/threonine-protein kinase PAK 4 (Homo sapiens, UniProt O96013). Briefly: Inhibition of PAK4.
The target in assay [10] is Insulin receptor (Homo sapiens, UniProt P06213). Briefly: Inhibition of INSR.
Assay [11] concerns the target Tyrosine-protein kinase ABL1 (Homo sapiens, UniProt P00519). Briefly: Inhibition of ABL.
In assay [12] the target is Proto-oncogene tyrosine-protein kinase Src (Homo sapiens) (UniProt P12931). Briefly: Inhibition of SRC at 1 uM.
For assay [13], the target named is Serine/threonine-protein kinase Chk2 (Homo sapiens) (UniProt O96017). In words: Inhibition of human CHK2 expressed in Escherichia coli at 1 uM.
Assay [14] addresses Mitogen-activated protein kinase 1 (Homo sapiens) (UniProt P28482). In words: Inhibition of ERK2 at 1 uM.
The target in assay [15] is Serine/threonine-protein kinase pim-2 (Homo sapiens, UniProt Q9P1W9). Briefly: Inhibition of PIM2.
In assay [16] the target is Calcium/calmodulin-dependent protein kinase type 1 (Homo sapiens, UniProt Q14012). Briefly: Inhibition of CAMK1.
Assay [17] has as its target Inhibitor of nuclear factor kappa-B kinase subunit epsilon (Homo sapiens) (UniProt Q14164). Briefly: Inhibition of IKKi at 1 uM.
Assay [18] deals with Dual specificity protein kinase CLK1 (Homo sapiens) (UniProt P49759). Briefly: Inhibition of CLK at 1 uM.
Chain of Dual specificity protein kinase CLK1 (Homo sapiens) (P49759 whole entry, looked up): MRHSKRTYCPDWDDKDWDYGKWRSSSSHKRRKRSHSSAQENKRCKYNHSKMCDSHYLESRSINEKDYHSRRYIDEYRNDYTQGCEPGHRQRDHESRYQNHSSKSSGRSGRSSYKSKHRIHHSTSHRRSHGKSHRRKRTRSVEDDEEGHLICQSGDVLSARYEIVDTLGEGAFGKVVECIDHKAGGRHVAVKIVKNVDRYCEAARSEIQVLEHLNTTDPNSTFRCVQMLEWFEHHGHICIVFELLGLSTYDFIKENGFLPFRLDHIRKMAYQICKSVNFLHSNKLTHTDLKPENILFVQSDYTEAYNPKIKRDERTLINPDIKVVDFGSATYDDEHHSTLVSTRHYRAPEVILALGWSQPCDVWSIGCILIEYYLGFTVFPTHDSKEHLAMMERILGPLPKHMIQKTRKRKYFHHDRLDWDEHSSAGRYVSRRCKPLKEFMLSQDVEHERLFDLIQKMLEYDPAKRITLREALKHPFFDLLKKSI
Assay [19] has as its target Mitogen-activated protein kinase 1 (Homo sapiens) (UniProt P28482). Briefly: Inhibition of human MAPK1 at 1 uM.
In assay [20] the target is T2, RAC-alpha serine/threonine-protein kinase. In words: Inhibition of AKT1 at 1 uM.
For assay [21], the target named is Protein kinase C beta type (Homo sapiens) (UniProt P05771). In words: Inhibition of PKCbeta at 1 uM.
Assay [22] in a line: Inhibition of bovine PKA.
Assay [23] concerns the target Cyclin-dependent kinase 2 (Homo sapiens) (UniProt P24941). Briefly: Inhibition of CDK2 at 1 uM.
The target of assay [24] is Protein kinase C alpha type (Homo sapiens) (UniProt P17252). In words: Inhibition of PKCalpha at 1 uM.
The target in assay [25] is Cyclin-dependent kinase 1 (Homo sapiens, UniProt P06493). Briefly: Inhibition of CDK1 expressed in Sf21 cells.
Chain of Cyclin-dependent kinase 1 (P06493 whole entry): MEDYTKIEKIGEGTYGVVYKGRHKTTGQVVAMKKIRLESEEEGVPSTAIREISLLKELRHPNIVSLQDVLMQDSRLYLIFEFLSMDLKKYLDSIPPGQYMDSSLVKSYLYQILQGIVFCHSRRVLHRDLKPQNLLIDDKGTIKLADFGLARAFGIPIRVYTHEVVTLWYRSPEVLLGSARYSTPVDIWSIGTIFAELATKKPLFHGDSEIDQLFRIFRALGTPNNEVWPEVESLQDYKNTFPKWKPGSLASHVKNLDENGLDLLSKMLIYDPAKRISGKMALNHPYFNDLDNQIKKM
In assay [26] the target is Protein kinase C zeta type (Homo sapiens) (UniProt Q05513). In words: Inhibition of PKCzeta at 1 uM.
Chain of Protein kinase C zeta type (Homo sapiens) (Q05513 whole entry): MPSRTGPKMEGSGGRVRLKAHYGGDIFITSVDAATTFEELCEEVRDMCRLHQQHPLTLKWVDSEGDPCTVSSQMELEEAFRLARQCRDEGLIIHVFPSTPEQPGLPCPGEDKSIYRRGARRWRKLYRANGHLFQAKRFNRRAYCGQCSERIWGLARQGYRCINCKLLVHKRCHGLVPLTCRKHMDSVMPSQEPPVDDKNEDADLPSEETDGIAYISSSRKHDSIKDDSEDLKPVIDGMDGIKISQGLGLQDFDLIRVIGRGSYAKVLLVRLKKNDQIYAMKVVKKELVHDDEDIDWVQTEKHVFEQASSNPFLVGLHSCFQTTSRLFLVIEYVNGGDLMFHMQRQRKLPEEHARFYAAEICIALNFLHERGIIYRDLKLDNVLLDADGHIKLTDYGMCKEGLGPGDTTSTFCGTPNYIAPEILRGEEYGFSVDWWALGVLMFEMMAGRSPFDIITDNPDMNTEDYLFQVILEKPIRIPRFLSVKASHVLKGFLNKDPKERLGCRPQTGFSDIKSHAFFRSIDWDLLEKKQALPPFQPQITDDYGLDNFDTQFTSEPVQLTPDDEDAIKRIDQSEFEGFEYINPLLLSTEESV
Assay [27] has as its target 3-phosphoinositide-dependent protein kinase 1 (Homo sapiens) (UniProt O15530). Briefly: Inhibition of human PDK1 at 1 uM.
The target in assay [28] is Tyrosine-protein kinase Lck (Homo sapiens, UniProt P06239). In words: Inhibition of human LCK.
Assay [29] has as its target Serine/threonine-protein kinase Sgk1 (Homo sapiens, UniProt O00141). In words: Inhibition of human SGK.
For assay [30], the target named is Glycogen synthase kinase-3 beta (Homo sapiens) (UniProt P49841). In words: Inhibition of GSK3-beta at 1 uM.
Chain of Glycogen synthase kinase-3 beta (Homo sapiens) (P49841 whole entry, looked up): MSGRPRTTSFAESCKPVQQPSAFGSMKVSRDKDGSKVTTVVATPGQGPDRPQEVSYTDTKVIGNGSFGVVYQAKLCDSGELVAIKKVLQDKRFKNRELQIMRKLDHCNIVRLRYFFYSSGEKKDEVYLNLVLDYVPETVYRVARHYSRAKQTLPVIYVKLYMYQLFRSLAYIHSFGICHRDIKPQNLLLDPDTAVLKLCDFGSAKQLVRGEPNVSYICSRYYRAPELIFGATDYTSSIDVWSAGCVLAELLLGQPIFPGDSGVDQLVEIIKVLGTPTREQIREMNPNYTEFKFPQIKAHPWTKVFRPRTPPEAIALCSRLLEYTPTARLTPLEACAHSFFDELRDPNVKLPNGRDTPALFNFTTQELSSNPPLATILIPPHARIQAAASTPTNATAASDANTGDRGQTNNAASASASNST
For assay [31], the target named is Rho-associated protein kinase 1 (Homo sapiens) (UniProt Q13464). In words: Inhibition of ROCK1 activity at 1 uM.
Chain of Rho-associated protein kinase 1 (Homo sapiens) (Q13464 2-1354 limits assumed): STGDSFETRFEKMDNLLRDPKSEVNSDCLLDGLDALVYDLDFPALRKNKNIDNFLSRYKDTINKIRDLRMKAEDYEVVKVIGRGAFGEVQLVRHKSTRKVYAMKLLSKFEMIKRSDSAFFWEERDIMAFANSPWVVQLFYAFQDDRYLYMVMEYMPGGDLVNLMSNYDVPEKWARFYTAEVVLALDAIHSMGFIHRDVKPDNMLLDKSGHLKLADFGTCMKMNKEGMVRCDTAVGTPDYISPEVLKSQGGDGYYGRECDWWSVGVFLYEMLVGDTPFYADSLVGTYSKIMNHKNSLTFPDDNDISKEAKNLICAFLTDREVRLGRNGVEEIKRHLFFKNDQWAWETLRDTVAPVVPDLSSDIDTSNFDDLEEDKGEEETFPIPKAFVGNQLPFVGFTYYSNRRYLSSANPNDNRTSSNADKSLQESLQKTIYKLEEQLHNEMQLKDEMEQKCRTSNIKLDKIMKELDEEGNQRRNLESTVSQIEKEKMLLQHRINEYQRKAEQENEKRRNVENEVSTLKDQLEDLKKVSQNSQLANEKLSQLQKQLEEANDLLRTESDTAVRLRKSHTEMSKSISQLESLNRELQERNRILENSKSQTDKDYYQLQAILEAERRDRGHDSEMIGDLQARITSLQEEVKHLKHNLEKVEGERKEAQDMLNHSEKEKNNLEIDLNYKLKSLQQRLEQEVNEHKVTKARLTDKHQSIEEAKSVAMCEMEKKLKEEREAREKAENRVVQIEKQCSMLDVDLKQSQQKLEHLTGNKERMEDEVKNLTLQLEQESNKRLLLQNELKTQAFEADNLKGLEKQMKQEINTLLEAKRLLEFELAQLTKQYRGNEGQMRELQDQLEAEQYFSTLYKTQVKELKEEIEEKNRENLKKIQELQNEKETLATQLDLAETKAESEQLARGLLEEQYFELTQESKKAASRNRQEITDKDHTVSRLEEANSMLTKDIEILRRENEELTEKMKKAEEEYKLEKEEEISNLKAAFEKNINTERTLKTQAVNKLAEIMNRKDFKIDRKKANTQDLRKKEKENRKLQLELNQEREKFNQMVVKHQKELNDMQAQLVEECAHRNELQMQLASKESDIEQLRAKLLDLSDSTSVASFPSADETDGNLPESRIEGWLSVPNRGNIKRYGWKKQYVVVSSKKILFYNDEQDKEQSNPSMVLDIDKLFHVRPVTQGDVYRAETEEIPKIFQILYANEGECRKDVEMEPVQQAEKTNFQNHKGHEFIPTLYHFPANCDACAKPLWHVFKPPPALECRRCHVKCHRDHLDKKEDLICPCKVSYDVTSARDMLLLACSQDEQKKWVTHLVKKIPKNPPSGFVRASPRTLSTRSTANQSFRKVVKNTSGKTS
Assay [32] can be described thus: Inhibition of human VEGFR expressed in baculovirus/insect cell system by FLVK-P assay.
Assay [33] has as its target Serine/threonine-protein kinase 26 (Homo sapiens, UniProt Q9P289). In words: Inhibition of MASK.
The target in assay [34] is Inhibitor of nuclear factor kappa-B kinase subunit beta (Homo sapiens) (UniProt O14920). In words: Inhibition of IKK-beta at 1 uM.
The target of assay [35] is Serine/threonine-protein kinase Nek2 (Homo sapiens, UniProt P51955). Briefly: Inhibition of NEK2.
Chain of Serine/threonine-protein kinase Nek2 (P51955 whole entry): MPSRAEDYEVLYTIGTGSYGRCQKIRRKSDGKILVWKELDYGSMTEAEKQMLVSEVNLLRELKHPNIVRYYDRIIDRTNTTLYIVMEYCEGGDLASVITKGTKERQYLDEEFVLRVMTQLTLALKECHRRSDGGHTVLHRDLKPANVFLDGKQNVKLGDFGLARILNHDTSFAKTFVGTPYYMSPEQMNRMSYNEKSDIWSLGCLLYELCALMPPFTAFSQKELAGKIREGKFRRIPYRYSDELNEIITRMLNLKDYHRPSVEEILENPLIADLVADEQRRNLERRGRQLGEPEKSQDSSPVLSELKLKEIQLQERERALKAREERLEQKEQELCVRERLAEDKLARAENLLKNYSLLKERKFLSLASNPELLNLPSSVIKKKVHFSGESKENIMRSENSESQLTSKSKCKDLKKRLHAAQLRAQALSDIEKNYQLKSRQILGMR
Assay [36] concerns MDA-MB-231. In words: Cell cycle arrest in MDA-MB-231 cells assessed as accumulation at S phase by FACS analysis. Type of assay: functional, cell-based. As to conditions: Homo sapiens. A general note: A flow cytometer gives signals particle by particle.

T2 sequence (P31749 whole entry): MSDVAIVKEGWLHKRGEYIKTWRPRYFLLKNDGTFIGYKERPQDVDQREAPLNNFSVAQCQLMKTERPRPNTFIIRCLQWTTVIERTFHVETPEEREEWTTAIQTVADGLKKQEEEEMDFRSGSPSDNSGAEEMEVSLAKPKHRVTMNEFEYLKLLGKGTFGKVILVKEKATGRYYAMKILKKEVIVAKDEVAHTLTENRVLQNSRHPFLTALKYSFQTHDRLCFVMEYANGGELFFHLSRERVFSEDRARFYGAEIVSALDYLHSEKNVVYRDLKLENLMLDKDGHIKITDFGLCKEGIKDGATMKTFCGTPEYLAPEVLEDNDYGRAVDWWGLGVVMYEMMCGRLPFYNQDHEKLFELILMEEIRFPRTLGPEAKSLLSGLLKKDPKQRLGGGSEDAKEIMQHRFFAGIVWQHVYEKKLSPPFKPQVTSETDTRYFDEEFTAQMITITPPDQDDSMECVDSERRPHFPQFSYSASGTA
Chain of Mitogen-activated protein kinase 1 (Homo sapiens) (P28482 whole entry): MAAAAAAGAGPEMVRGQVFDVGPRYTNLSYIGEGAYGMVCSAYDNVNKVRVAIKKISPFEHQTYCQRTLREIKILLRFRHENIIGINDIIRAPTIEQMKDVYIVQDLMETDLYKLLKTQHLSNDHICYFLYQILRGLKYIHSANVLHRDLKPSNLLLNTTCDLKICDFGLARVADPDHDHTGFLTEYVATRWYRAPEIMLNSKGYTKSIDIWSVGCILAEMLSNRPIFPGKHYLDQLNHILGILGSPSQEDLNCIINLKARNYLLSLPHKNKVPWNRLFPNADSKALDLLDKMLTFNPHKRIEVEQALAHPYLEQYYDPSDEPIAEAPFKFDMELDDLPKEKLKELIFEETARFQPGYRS
Chain of Serine/threonine-protein kinase 26 (Q9P289 whole entry): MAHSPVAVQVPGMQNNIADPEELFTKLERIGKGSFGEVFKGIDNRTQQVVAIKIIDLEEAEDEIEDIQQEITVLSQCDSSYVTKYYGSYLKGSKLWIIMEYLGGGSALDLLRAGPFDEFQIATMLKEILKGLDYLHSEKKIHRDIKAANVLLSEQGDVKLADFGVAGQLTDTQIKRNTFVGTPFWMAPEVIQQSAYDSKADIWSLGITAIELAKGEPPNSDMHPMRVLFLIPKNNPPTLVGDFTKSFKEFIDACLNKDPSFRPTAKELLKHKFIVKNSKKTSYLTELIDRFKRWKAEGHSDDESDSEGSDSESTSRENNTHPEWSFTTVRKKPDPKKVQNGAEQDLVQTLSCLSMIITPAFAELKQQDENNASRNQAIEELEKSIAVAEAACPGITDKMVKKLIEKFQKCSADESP

`Oc1ccc(-c2ccc(-c3cc(Nc4ccc(CN5CCCCC5)nc4)[nH]n3)cc2)c(O)c1`: the EC50 in assay [1] came out at 0.15 µM. In [2], this molecule came in with a Ki of 0.0003 µM.
As for `O=C(Nc1ccc(O)cc1)c1ccc2c(-c3nc4ccccc4[nH]3)n[nH]c2c1`, in assay [3], the result was inactive. Moreover, in assay [4], the result was Active.
In turn, `CN(C)Cc1ccc(Nc2cc(-c3ccc(-c4ccc(O)cc4O)cc3)[nH]n2)cc1` had a concentration for a half-maximal effect (EC50) in assay [1] of 0.058 µM. Further, the inhibitory constant (Ki) in [2] turned out to be 0.00019 µM.
On to `CC(C)NCc1ccc(Nc2cc(-c3ccc(-c4ccc(O)cc4O)cc3)[nH]n2)cc1`, for which the IC50 in [5] is 26.9 µM; in [8] it was 10 µM; in [9], 14.4 µM; in assay [10], more than 30 µM; in assay [11] it was 1.1 µM; in [15] it was 1.72 µM. In addition, the IC50 in assay [16] stood at 2.13 µM; in assay [22], 0.86 µM; in [25] it was 3.3 µM; in [28], 2.55 µM; in [29], 0.29 µM; in assay [32], 1.03 µM. In addition, the values for the IC50 in [33] and in [35] were 1.85 µM and 1.04 µM, respectively. Moreover, the inhibition in assay [6] was 29%; in assay [7], 0.7%; in [12], 8%; in assay [13], 27.5%; in assay [14], -2%; in assay [17], 26%. Besides, the inhibition in assay [18] was determined as 24%; in assay [19] it was 14.5%; in assay [20], 7%; in assay [21] it was 16%; in assay [23], 31%; in assay [24] it was 0%. The inhibition is 18.6% in assay [26]; 33% in assay [27]; 30% in assay [30]; 13.5% in assay [31]; 12.7% in assay [34].
`O=C(Nc1ccc(O)cc1O)c1ccc2c(-c3nc4ccccc4[nH]3)n[nH]c2c1` gave an EC50 in [1] of 0.55 µM. Moreover, in [2], affinity was put at a Ki of 0.0005 µM.
For `CCC(C)NCc1ccc(Nc2cc(-c3ccc(-c4ccc(O)cc4O)cc3)n[nH]2)cn1` (stereo not given) the same measures were 0.23 µM and 0.0002 µM.
`Nc1ccn([C@@H]2O[C@H](CO)[C@@H](O)C2(F)F)c(=O)n1`: the result in assay [36] was Active.
With `Oc1ccc(-c2ccc(-c3cc(Nc4ccc(CN5CCCC5)cc4)n[nH]3)cc2)c(O)c1`, the EC50 in assay [1] stood at 0.041 µM. Also, in [2], the inhibition constant (Ki) came out at 0.00018 µM.
For `Oc1ccc(-c2ccc(-c3cc(Nc4ccc(CNCC5CC5)nc4)[nH]n3)cc2)c(O)c1`, in that order: 0.165 µM and 0.0008 µM.
For `Oc1ccc(-c2ccc(-c3cc(Nc4ccc(CNC5CC5)cc4)n[nH]3)cc2)c(O)c1` the same measures were 0.06 µM and 0.00038 µM.
In assay [1], `Oc1ccc(-c2ccc(-c3cc(Nc4ccccc4)n[nH]3)cc2)c(O)c1` came in with an EC50 of 0.5 µM. The molecule further displayed a Ki in assay [2] of 0.0012 µM.
